# Results: patent US10670566B2, “Rapid antimicrobial susceptibility testing using piezoelectric sensor” (Drexel University, priority 2015, dated 2020)
# How the values were obtained:
# E. coli [1] = test: Antimicrobial susceptibility testing using PZT piezoelectric plate sensor (width mode resonance peak); assay type: cell-based
# Procedure: After the PZT sensor was insulated with MPS and coated with APS, it was immersed in 5 ml of DI water to monitor the stability of width mode frequency peak for more than 30 min. If the peak was symmetric and stable, the sensor could be used for the antimicrobial testing.
# E. coli suspension in broth was prepared. The concentration was about 10^9 cells/mi. The following procedure was used to replace the broth with DI water, since the ions in the broth might affect the spectrum of the sensor. The suspension was centrifuged at 3000 rpm/min for 5 min and the supernatant was removed. 5 mL of DI water was then added to the tube and the E. coli was re-suspended in DI water.
# For the first a few tests (Tests 1-3), a drop of E. coli suspension (20 μl) was put on the sensor surface. After 10 min, the sensor was washed with 400 ml of DI water in a glass beaker 3 times to remove the unbound bacteria. The sensor was then returned to 5 ml of DI water and its width mode peak was monitored. In Test 4, instead of putting a drop of suspension on the sensor, the sensor was soaked in the E. coli suspension for 10 min. The washing step for Test 4 was the same as mentioned above.
# After the sensor with E. coli was monitored for 5-10 min, various amounts of ampicillin were added to the DI water every 5 min to determine whether the antibiotics would have an effect on the frequency peak. For Test 1, 1 mg/ml ampicillin solution was made. Different volumes of the ampicillin solution ([…]) were added to the 5 ml of DI water to make the final concentrations of the ampicillin 1, 2, 4, 8, 16, and 32 μg/ml. In Tests 2-4 20 μl of ampicillin solutions of different concentrations (0.25, 0.25, 0.5, 1, 2, and 4 mg/ml) were added each time to make the final concentration of the ampicillin to 1, 2, 4, 8, 16, and 32 μg/ml.
# To characterize the roundness of the peak shape, the raw data was smoothed first (as shown in FIG. 15. The amount of variation of the raw data from the smoothed data was calculated as the standard deviation (SD) of the raw data. The width of the top of the peak could be found when the phase angle was 1 times SD (or 2 times SD) smaller than the maximum phase angle in smoothed data. The more round the peak was, the smaller the width of the top of the peak would be. On the other hand, the more flat the peak was, the larger the width of the top of the top of the peak would be.
# [2] = pH of ampicillin solution measured using pH paper; assay type: physicochemical; settings: 1 mg/ml
# E. coli [3] = settings: known MIC for the E. coli strain tested; cited from earlier work
smiles,measurement,setting,value
CC1(C)S[C@@H]2[C@H](NC(=O)[C@H](N)c3ccccc3)C(=O)N2[C@H]1C(=O)O [ampicillin],"change of SD of peak frequency after adding ampicillin, compared to the SD with E. coli",E. coli [1]; Test 1,decreased a lot
same,ampicillin concentration at which the SD of the peak frequency reached its minimal point,"E. coli [1]; Test 1 (results similar in Tests 2 and 3), E. coli on sensor in DI water, ampicillin 1-32 μg/ml added every 5 min",8 µg/mL
same,change of width of the top of the peak after adding ampicillin,"E. coli [1]; Test 4, different sensor, pH adjusted ampicillin, sensor soaked in E. coli suspension",decreased
same,change of width of the top of the peak after adding ampicillin,E. coli [1]; Tests 1-3,started to decrease
same,pH value of the ampicillin solution,[2],3
same,minimal inhibitory concentration (MIC),E. coli [3],8 µg/mL
